Measurements published in paper PMC11418636, “Evaluating the potential of non‐immunosuppressive cyclosporin analogs for targeting Toxoplasma gondii cyclophilin: Insights from structural studies” (Protein Science : A Publication of the Protein Society, 2024).
Where two headings read alike, the source gives them in different places.

Legend:
TgCyp23 [1] = target: T1, TgCyp23 (Toxoplasma gondii, UniProt B9PS61); test: Differential scanning calorimetry (DSC) of TgCyp23 with ligands; assay type: binding; conditions: melting temperature of 70 μM TgCyp23 with ligand; TgCyp23 alone 49 ± 1
T1 sequence (B9PS61 entry or part of it): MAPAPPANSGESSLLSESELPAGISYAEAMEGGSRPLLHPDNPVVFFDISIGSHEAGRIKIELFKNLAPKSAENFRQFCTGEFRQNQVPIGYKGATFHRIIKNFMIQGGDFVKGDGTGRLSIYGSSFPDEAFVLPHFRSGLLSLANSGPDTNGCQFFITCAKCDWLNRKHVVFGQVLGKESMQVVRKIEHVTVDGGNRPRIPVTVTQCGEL
Description: Differential scanning calorimetry (DSC) experiments were conducted using a nano‐DSC (TA instrument) with a cell volume of 300 μL (Favretto et al., [2023]). […] Data were fitted according to a two‐state model using NanoAnalyze software (TA instrument).

TgCyp23 [2] = target: T1, TgCyp23; test: Circular dichroism (CD) thermal denaturation of TgCyp23 with ligands; assay type: binding; conditions: melting temperature of TgCyp23 with saturating ligand, 224 nm; TgCyp23 alone 52 ± 1
Description: Circular dichroism (CD) assays were conducted on a Jasco J‐1500 spectropolarimeter equipped with a Peltier temperature controller following the protocol described in (Bombardi et al., [2020]; Favretto et al., [2023]; Trande et al., [2019]; ). Briefly, denaturation profiles in the presence of saturating concentrations of ligands were obtained by monitoring the loss of secondary structure of TgCyp23 at 224 nm in the temperature range of 15–100°C, with a scan rate of 1.5°C/min. The protein concentration was 0.2 mg/mL, and the buffer used was 50 mM HEPES at pH 8.0 with 100 mM NaCl.

TgCyp23 [3] = target: T1, TgCyp23; test: Stopped-flow rapid kinetics of binding to TgCyp23; conditions: association rate constant, 20°C, pH 7.4, 0.5 μM TgCyp23, ligands 1 to 7 μM
Description: Stopped‐flow experiments were performed on an SX‐18 stopped‐flow apparatus (Applied Photophysics, Leatherhead, UK) at 20°C in 50 mM Hepes, 150 mM NaCl, 1 mM DTT (pH 7.4). Fluorescence emission was measured using a 320 nm cutoff filter (λex = 280 nm). The concentration of TgCyp23 after mixing was 0.5 μM, and the concentration of ligands after mixing ranged from 1 to 7 μM. For each trace, data from 4 to 6 injections were averaged and fitted with a single exponential function, excluding data points in the dead‐time of the stopped flow (<2 ms).

CypA = conditions: Ptak et al., 2008, read-out: Ki, inhibition of CypA PPIase activity, cited from earlier work
TgCyp23 [4] = target: T1, TgCyp23; test: PPIase inhibition, protease-coupled assay with AAPF peptide; assay type: biochemical; conditions: PPIase activity, TgCyp23 7 nM, ligand 0 to 30 nM, 10 min on ice; error SEM of triplicate
Description: PPIase activity was determined using the synthetic peptide N‐succinyl‐Ala‐Ala‐Pro‐Phe‐p‐nitroanilide (AAPF) based on the protease‐coupled assay as described in (Favretto et al., [2023]; Kofron et al., [1991]). In inhibition assays, TgCyp23 (7 nM) was incubated for 10 min on ice in the presence of increasing concentrations of the three analogs, ranging from 0 to 30 nM, before the addition of the AAPF peptide. In all experiments, the slope of the catalyzed reaction was corrected for spontaneous thermal cis–trans isomerization in the presence of chymotrypsin alone.
The residual enzymatic activity was estimated from the initial velocities of each catalyzed reaction and expressed as a percentage (%) of the original enzymatic activity (Astegno et al., [2017]). Residual enzymatic activities were plotted against ligand concentrations, and the obtained curve was analyzed to determine the IC50 value for each tested ligand. The experiments were repeated in triplicate, and the error was estimated as the standard error of the mean (SEM).

TgCyp23 [5] = target: T1, TgCyp23; test: Isothermal titration calorimetry (ITC) binding to TgCyp23; conditions: 20°C, 50 mM HEPES pH 8.0, 100 mM NaCl, error SEM of triplicate
Description: Isothermal titration calorimetry (ITC) experiments were performed on a PEAQ‐ITC instrument from MicroCal (Northampton, MA) as previously described (Bombardi et al., [2022]; Conter et al., [2021]; Favretto et al., [2023]). Stock solutions of dhCsA, NIM811, and Alisporivir were prepared in 100% EtOH and successively diluted in a buffer of 50 mM HEPES, pH 8.0, 100 mM NaCl at a final concentration of 8 μM. […] The analog solutions were titrated with 2 μL (total 19 injections) of a 66 μM TgCyp23 solution supplemented with 0.1% EtOH. All the experiments were executed at an operating temperature of 20°C and a time gap of 150 s between each injection. Protein and ligand samples were filtered and degassed thoroughly before the experiments. Reference experiments were performed in the absence of a ligand or a protein, and the heat of dilution was subtracted from each experiment. Each titration set was repeated as a triplicate and the error was estimated as the SEM. The data were analyzed using the software MicroCal Origin, and the apparent dissociation constants Kd, the enthalpy changes (ΔH), and entropy changes (ΔS) were obtained.

| Compound | Tm (DSC) (TgCyp23 [1]) | Tm (CD) (TgCyp23 [2]) | kon (TgCyp23 [3]) | Ki (CypA; ref Schiene-Fischer et al., 2022) | IC50 (TgCyp23 [4]) | Kd (TgCyp23 [5]) | Ki (CypA; ref Coelmont et al., 2010, de Wilde et al., 2013, Gallay & Lin, 2013) |
| --- | --- | --- | --- | --- | --- | --- | --- |
| C/C=C/C[C@@H](C)[C@@H](O)[C@H]1C(=O)N[C@@H](CC)C(=O)N(C)CC(=O)N(C)[C@@H]([C@@H](C)CC)C(=O)N[C@@H](C(C)C)C(=O)N(C)[C@@H](CC(C)C)C(=O)N[C@@H](C)C(=O)N[C@H](C)C(=O)N(C)[C@@H](CC(C)C)C(=O)N(C)[C@@H](CC(C)C)C(=O)N(C)[C@@H](C(C)C)C(=O)N1C [NIM811, MeIle-4-Cyclosporin] | 56 ± 1 °C | 58 ± 1 °C | 2.77e+06 ± 150000 M⁻¹ s⁻¹ | 2.1 nM | 0.85 ± 0.03 nM | 43 ± 10 nM | – |
| C/C=C/C[C@@H](C)[C@@H](O)[C@H]1C(=O)N[C@@H](CC)C(=O)N(C)[C@H](C)C(=O)N(CC)[C@@H](C(C)C)C(=O)N[C@@H](C(C)C)C(=O)N(C)[C@@H](CC(C)C)C(=O)N[C@@H](C)C(=O)N[C@H](C)C(=O)N(C)[C@@H](CC(C)C)C(=O)N(C)[C@@H](CC(C)C)C(=O)N(C)[C@@H](C(C)C)C(=O)N1C [Alisporivir, MeAla-3-EtVal-4-Cyclosporin] | 55 ± 1 °C | 59 ± 1 °C | 3.97e+06 ± 210000 M⁻¹ s⁻¹ | – | 0.77 ± 0.01 nM | 15 ± 3 nM | 0.34 nM |
| CCCC[C@@H](C)[C@@H](O)[C@H]1C(=O)N[C@@H](CC)C(=O)N(C)CC(=O)N(C)[C@@H](CC(C)C)C(=O)N[C@@H](C(C)C)C(=O)N(C)[C@@H](CC(C)C)C(=O)N[C@@H](C)C(=O)N[C@H](C)C(=O)N(C)[C@@H](CC(C)C)C(=O)N(C)[C@@H](CC(C)C)C(=O)N(C)[C@@H](C(C)C)C(=O)N1C [dhCsA, Dihydrocyclosporin A] | 53 ± 1 °C | 57 ± 1 °C | 1.85e+06 ± 110000 M⁻¹ s⁻¹ | – | 1.2 ± 0.2 nM | 200 ± 92 nM | – |
